# Measurements as given in patent US8758816B2, “Compositions comprising azelastine and methods of use thereof” (priority 2004, dated 2014).
# Counter-ions that a name gives are not always drawn.
# Tested on: patients with seasonal allergic rhinitis (SAR)
# Experiment: MP 428 two-week randomized double-blind study: Total Nasal Symptom Score (TNSS), change from baseline
# Assay type: in vivo, human
# Set-up: key to Change from Baseline in AM TNSS, Mean / Change from Baseline in AM TNSS, LS Mean / Change from Baseline in AM TNSS, Median: TNSS sum of 4 symptoms each 0-3 (0=none, 3=severe); change from baseline
# Description: A two-week, randomized, double-blind study, which evaluated the effects of the co-administration of ASTELIN® (azelastine hydrochloride (HCl)) and FLONASE® (fluticasone propionate) compared to either product alone in patients with seasonal allergic rhinitis (SAR) was conducted during the 2006 Texas mountain cedar season. After a 5-day placebo lead-in period, 151 patients with moderate-to-severe allergic rhinitis symptoms were randomized to either: (1) (49 total patients) ASTELIN® (azelastine hydrochloride (HCl)) plus placebo saline nasal spray 2 sprays per nostril, 15 minutes apart, twice daily (AM & PM); (2) (50 total patients) FLONASE® (fluticasone propionate) plus placebo saline nasal spray, 2 sprays per nostril, 15 minutes apart, once daily (AM) and two sessions of placebo saline nasal spray, 2 sprays per nostril, 15 minutes apart (PM); or (3) (52 total patients) the co-administration of ASTELIN® (azelastine hydrochloride (HCl)) 2 sprays per nostril plus FLONASE® (fluticasone propionate) 2 sprays per nostril (AM), 15 minutes apart, and ASTELIN® (azelastine hydrochloride (HCl)) 2 sprays per nostril plus placebo saline nasal spray, 15 minutes apart, (PM) for a 2-week double-blind treatment period.
# The primary efficacy variable was the change from baseline in the Total Nasal Symptom Score (TNSS), which comprised sneezing, itchy nose, runny nose, and nasal congestion (individual symptoms scores were assigned a value between 0 and 3, where 0=no symptoms and 3=severe symptoms). This study was not statistically designed to assess the differences between ASTELIN® and FLONASE®.
# [1] = Day 9, Intent-to-Treat Population
# [2] = Day 10, Intent-to-Treat Population
# [3] = Day 10, Per-Protocol Population
# [4] = Day 11, Intent-to-Treat Population
# [5] = Day 11, Per-Protocol Population
# [6] = Day 12, Intent-to-Treat Population
compound,measurement,setting,value
"CN1CCCC(n2nc(Cc3ccc(Cl)cc3)c3ccccc3c2=O)CC1 (racemic) [Azelastine, (±)-1-(2H)-phthalazinone, 4-[(4-chlorophenyl)methyl]-2-(hexahydro-1-methyl-1H-azepin-4-yl)-, mono-hydrochloride]","Change from Baseline in AM TNSS, Median",[1],−2.00
same,"Change from Baseline in AM and PM Combined TNSS, Mean",[1],−5.38
same,"Change from Baseline in AM and PM Combined TNSS, Median",[1],−3.83
same,"Change from Baseline in PM TNSS, LS Mean",[1],−2.78
same,"Change from Baseline in PM TNSS, Mean",[1],−2.86
same,"Change from Baseline in PM TNSS, Median",[1],−2.33
same,"Percent Change from Baseline in AM TNSS, LS Mean",[1],−26.38%
same,"Percent Change from Baseline in AM TNSS, Mean",[1],−26.20%
same,"Percent Change from Baseline in AM TNSS, Median",[1],−22.22%
same,"Percent Change from Baseline in AM and PM Combined TNSS, LS Mean",[1],−27.79%
same,"Percent Change from Baseline in AM and PM Combined TNSS, Mean",[1],−27.72%
same,"Percent Change from Baseline in AM and PM Combined TNSS, Median",[1],−19.35%
same,"Percent Change from Baseline in PM TNSS, LS Mean",[1],−28.94%
same,"Percent Change from Baseline in PM TNSS, Mean",[1],−28.91%
same,"Percent Change from Baseline in PM TNSS, Median",[1],−25.00%
same,"Change from Baseline in AM and PM Combined TNSS, LS Mean","Day 9, Intent-to-Treat Population, ANCOVA model",−5.36
same,"Change from Baseline in AM and PM Combined TNSS, LS Mean","Day 9, Per-Protocol Population",−5.32
same,"Change from Baseline in AM and PM Combined TNSS, Mean","Day 9, Per-Protocol Population",−5.38
same,"Change from Baseline in AM and PM Combined TNSS, Median","Day 9, Per-Protocol Population",−3.83
same,"Percent Change from Baseline in AM and PM Combined TNSS, LS Mean","Day 9, Per-Protocol Population",−27.68%
same,"Percent Change from Baseline in AM and PM Combined TNSS, Mean","Day 9, Per-Protocol Population",−27.72%
same,"Percent Change from Baseline in AM and PM Combined TNSS, Median","Day 9, Per-Protocol Population",−19.35%
same,"Change from Baseline in AM TNSS, LS Mean",[2],−2.29
same,"Change from Baseline in AM TNSS, Mean",[2],−2.27
same,"Change from Baseline in AM TNSS, Median",[2],−2.17
same,"Change from Baseline in AM and PM Combined TNSS, Mean",[2],−5.36
same,"Change from Baseline in AM and PM Combined TNSS, Median",[2],−5.33
same,"Change from Baseline in PM TNSS, LS Mean",[2],−3.01
same,"Change from Baseline in PM TNSS, Mean",[2],−3.08
same,"Change from Baseline in PM TNSS, Median",[2],−3.00
same,"Percent Change from Baseline in AM TNSS, LS Mean",[2],−23.62%
same,"Percent Change from Baseline in AM TNSS, Mean",[2],−23.81%
same,"Percent Change from Baseline in AM TNSS, Median",[2],−23.64%
same,"Percent Change from Baseline in AM and PM Combined TNSS, LS Mean",[2],−27.60%
same,"Percent Change from Baseline in AM and PM Combined TNSS, Mean",[2],−27.81%
same,"Percent Change from Baseline in AM and PM Combined TNSS, Median",[2],−28.93%
same,"Percent Change from Baseline in PM TNSS, LS Mean",[2],−31.30%
same,"Percent Change from Baseline in PM TNSS, Mean",[2],−31.29%
same,"Percent Change from Baseline in PM TNSS, Median",[2],−33.33%
same,"Change from Baseline in AM and PM Combined TNSS, LS Mean","Day 10, Intent-to-Treat Population, ANCOVA model",−5.29
same,"Change from Baseline in AM and PM Combined TNSS, LS Mean",[3],−5.25
same,"Change from Baseline in AM and PM Combined TNSS, Mean",[3],−5.36
same,"Change from Baseline in AM and PM Combined TNSS, Median",[3],−5.33
same,"Percent Change from Baseline in AM and PM Combined TNSS, LS Mean",[3],−27.49%
same,"Percent Change from Baseline in AM and PM Combined TNSS, Mean",[3],−27.81%
same,"Percent Change from Baseline in AM and PM Combined TNSS, Median",[3],−28.93%
same,"Change from Baseline in AM TNSS, LS Mean",[4],−2.53
same,"Change from Baseline in AM TNSS, Mean",[4],−2.48
same,"Change from Baseline in AM TNSS, Median",[4],−2.00
same,"Change from Baseline in AM and PM Combined TNSS, Mean",[4],−5.77
same,"Change from Baseline in AM and PM Combined TNSS, Median",[4],−4.70
same,"Change from Baseline in PM TNSS, LS Mean",[4],−3.20
same,"Change from Baseline in PM TNSS, Mean",[4],−3.29
same,"Change from Baseline in PM TNSS, Median",[4],−3.33
same,"Percent Change from Baseline in AM TNSS, LS Mean",[4],−25.86%
same,"Percent Change from Baseline in AM TNSS, Mean",[4],−25.65%
same,"Percent Change from Baseline in AM TNSS, Median",[4],−19.40%
same,"Percent Change from Baseline in AM and PM Combined TNSS, LS Mean",[4],−29.24%
same,"Percent Change from Baseline in AM and PM Combined TNSS, Mean",[4],−29.42%
same,"Percent Change from Baseline in AM and PM Combined TNSS, Median",[4],−26.11%
same,"Percent Change from Baseline in PM TNSS, LS Mean",[4],−32.80%
same,"Percent Change from Baseline in PM TNSS, Mean",[4],−32.77%
same,"Percent Change from Baseline in PM TNSS, Median",[4],−33.96%
same,"Change from Baseline in AM and PM Combined TNSS, LS Mean","Day 11, Intent-to-Treat Population, ANCOVA model",−5.70
same,"Change from Baseline in AM and PM Combined TNSS, LS Mean",[5],−5.64
same,"Change from Baseline in AM and PM Combined TNSS, Mean",[5],−5.77
same,"Change from Baseline in AM and PM Combined TNSS, Median",[5],−4.70
same,"Percent Change from Baseline in AM and PM Combined TNSS, LS Mean",[5],−29.05%
same,"Percent Change from Baseline in AM and PM Combined TNSS, Mean",[5],−29.42%
same,"Percent Change from Baseline in AM and PM Combined TNSS, Median",[5],−26.11%
same,"Change from Baseline in AM TNSS, LS Mean",[6],−2.60
same,"Change from Baseline in AM TNSS, Mean",[6],−2.58
same,"Change from Baseline in AM TNSS, Median",[6],−2.50
same,"Change from Baseline in AM and PM Combined TNSS, Mean",[6],−5.54
same,"Change from Baseline in AM and PM Combined TNSS, Median",[6],−5.00
same,"Change from Baseline in PM TNSS, LS Mean",[6],−2.85
same,"Change from Baseline in PM TNSS, Mean",[6],−2.96
same,"Change from Baseline in PM TNSS, Median",[6],−2.40
same,"Percent Change from Baseline in AM TNSS, LS Mean",[6],−26.61%
same,"Percent Change from Baseline in AM TNSS, Mean",[6],−26.72%
same,"Percent Change from Baseline in AM TNSS, Median",[6],−26.32%
same,"Percent Change from Baseline in AM and PM Combined TNSS, LS Mean",[6],−27.99%
same,"Percent Change from Baseline in AM and PM Combined TNSS, Mean",[6],−28.25%
same,"Percent Change from Baseline in AM and PM Combined TNSS, Median",[6],−25.86%
same,"Percent Change from Baseline in PM TNSS, LS Mean",[6],−29.18%
same,"Percent Change from Baseline in PM TNSS, Mean",[6],−29.44%
